Columns and labels:
[1] = target: T1, human V2 receptor (Homo sapiens, UniProt P30518); assay: V2 vasopressin receptor functional activity (cAMP accumulation); type: cell-based; design: expressed in transfected cells; host or cells: HEK-293; settings: V2-HEK cells; block of vasopressin-stimulated cAMP accumulation; read-out: V2 (functional) IC50
Protocol: The V2 receptor is also a G-protein coupled receptor which when activated induces an increase in cAMP turnover. Antagonism against the V2 receptor is determined by measuring cAMP accumulation in transfected HEK-293 cells expressing the human V-2 receptor (V2-HEK cells). Compounds are tested for their ability to block the stimulatory effects of vasopressin on cAMP accumulation. The cell content of cAMP is measured by radioimmunoassay using NEN flashplates.

[2] = target: T2, human V1a receptor (Homo sapiens, UniProt P37288); assay: cell-based
T2 construct: expressed in transfected cells
Protocol: The V1a receptor is a G-protein coupled receptor, which upon activation triggers an increase in intracellular calcium mobilization. To evaluate compounds for their functional V1a receptor activity, HEK-293 cells were transfected with the human V1a receptor (V1a-HEK cells). HEK-293 cells were grown in DMEM (Dulbecco's modified Eagle Media) supplemented with 10% FBS and glutamine. HEK-cells were passed biweekly by trypsinization and seeded into 96 well plates at 33,000 cells per well. HEK-293 cells were transfected with human V1a receptor DNA using DMRIE-C reagent from Life Technologies (Carlsbad, Calif.). Stable lines were generated by selecting cells grown in culture media containing geneticin. After growing in Packard Clear-View black 96 well plates for 4-6 days, V1a-HEK cells were loaded with the calcium-sensitive fluorescence dye, FLUO-3 AM. Changes in intracellular calcium mobilization were measured by quantitating intracellular fluorescence using FLIPR (Fluorometric Imaging Plate Reader; Molecular Devices, Sunnyvale, Calif.). Test compounds were first added to the cells and the resulting changes in fluorescence measured to detect receptor agonistic activity. Five minutes later the cells were challenged with vasopressin to test compounds for their antagonistic activity. Receptor antagonists inhibit the ability of vasopressin to stimulate increases in intracellular fluorescence.

[3] = target: T1, human V2 receptor; assay: In-vitro binding assay (3H-arginine-8-vasopressin), V2; settings: for IC50: membrane containing human V2 receptor, 3H-arginine-8-vasopressin 0.65-0.75 nM; for inhibition at 0.2 µM: test concentration of 0.2 μM, read-out: V2 binding percent inhibition (in parentheses, where an IC50 value was not obtained)
Protocol: Assay buffer is 50 mM Tris-Cl, 5 mM MgCl2, 0.1% BSA (pH 7.5) containing 5 μg/mL of aprotinin, leupeptin, pepstatin, 50 μg/mL bacitracin, and 1 mM Pefabloc (4-(2-aminoethyl)-benzenesulfonyl fluoride, hydrochloride manufactured by Roche Diagnostics Corporation, Indianapolis, Ind. and distributed by Boehringer Mannheim). […] Into the wells of a 96-well round bottom polypropylene plates are added buffer, test compound, membrane (containing human V1a or V2 receptor), and H3 vasopressin. The reaction plates are allowed to sit at room temperature for one hour. The samples are filtered through Unifilter GF/C plates (PerkinElmer Life Sciences, Boston, Mass.) presoaked in 0.3 polyethyleneimine. The plates are washed 5 times with cold physiological saline containing 0.05% Tween 20. After drying, the bottom of the filter plates are sealed and 0.025 mL of Microscint-20 (Packard Instrument Co, Meriden, Conn.) is added to each filter. The top of the plate is sealed, and the plate is counted.
(§1) The % inhibition for the test results was calculated according to the formula: […]

[4] = target: T2, human V1a receptor; assay: In-vitro binding assay (3H-arginine-8-vasopressin), V1a; settings: for IC50: membrane containing human V1a receptor, 3H-arginine-8-vasopressin 0.65-0.75 nM; for inhibition at 0.2 µM: test concentration of 0.2 μM, read-out: V1a binding percent inhibition (in parentheses, where an IC50 value was not obtained)
Protocol: Assay buffer is 50 mM Tris-Cl, 5 mM MgCl2, 0.1% BSA (pH 7.5) containing 5 μg/mL of aprotinin, leupeptin, pepstatin, 50 μg/mL bacitracin, and 1 mM Pefabloc (4-(2-aminoethyl)-benzenesulfonyl fluoride, hydrochloride manufactured by Roche Diagnostics Corporation, Indianapolis, Ind. and distributed by Boehringer Mannheim). H3 vasopressin is ^3H-arginine-8-vasopressin (NEN Life Sciences, Boston, Mass.; 68.5 Ci/mmol, final concentration in assay is 0.65-0.75 nM). Into the wells of a 96-well round bottom polypropylene plates are added buffer, test compound, membrane (containing human V1a or V2 receptor), and H3 vasopressin. The reaction plates are allowed to sit at room temperature for one hour. The samples are filtered through Unifilter GF/C plates (PerkinElmer Life Sciences, Boston, Mass.) presoaked in 0.3 polyethyleneimine. The plates are washed 5 times with cold physiological saline containing 0.05% Tween 20. After drying, the bottom of the filter plates are sealed and 0.025 mL of Microscint-20 (Packard Instrument Co, Meriden, Conn.) is added to each filter. The top of the plate is sealed, and the plate is counted. Non-specific binding is determined by the addition of 1.25 μM arginine-8-vasopressin in those wells.
as §1
Where an IC50 value was not obtained, the percent inhibition values are shown in parentheses (*) and were obtained at a test concentration of 0.2 μM.

[5] = V1 (functional) IC50, V1a-HEK cells, inhibition of vasopressin-stimulated intracellular calcium mobilization

T1 sequence (P30518 whole entry): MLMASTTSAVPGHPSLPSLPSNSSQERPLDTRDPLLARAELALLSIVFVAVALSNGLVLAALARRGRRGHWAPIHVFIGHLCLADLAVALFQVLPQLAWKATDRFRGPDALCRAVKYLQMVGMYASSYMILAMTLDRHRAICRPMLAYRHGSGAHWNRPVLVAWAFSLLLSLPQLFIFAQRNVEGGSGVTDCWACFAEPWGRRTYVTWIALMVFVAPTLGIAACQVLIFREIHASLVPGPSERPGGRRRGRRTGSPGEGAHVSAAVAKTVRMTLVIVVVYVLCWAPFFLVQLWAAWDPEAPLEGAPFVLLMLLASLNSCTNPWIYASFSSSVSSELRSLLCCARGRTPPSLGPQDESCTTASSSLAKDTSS
T2 sequence (P37288 whole entry): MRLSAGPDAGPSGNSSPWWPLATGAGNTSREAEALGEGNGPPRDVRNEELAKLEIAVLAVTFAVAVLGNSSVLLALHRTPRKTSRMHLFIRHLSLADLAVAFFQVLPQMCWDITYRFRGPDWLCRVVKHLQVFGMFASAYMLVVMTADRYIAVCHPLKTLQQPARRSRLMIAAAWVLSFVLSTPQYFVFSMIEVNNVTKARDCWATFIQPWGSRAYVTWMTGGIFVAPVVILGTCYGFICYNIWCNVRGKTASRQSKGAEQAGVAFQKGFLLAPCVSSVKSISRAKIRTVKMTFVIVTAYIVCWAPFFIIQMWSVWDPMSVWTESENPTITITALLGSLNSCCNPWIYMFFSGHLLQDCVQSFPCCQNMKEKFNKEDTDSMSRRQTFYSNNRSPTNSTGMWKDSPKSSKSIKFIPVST

SMILES	IC50 [1]	IC50 [3]	IC50 [4]	other results
NN=C1CCCC12CCN(C(=O)c1ccc(NC(=O)c3cc(F)ccc3Cl)cc1)c1ccccc1C2 (centres unmarked) [Cpd 1, 2-aminoimino-N-[4-(2-chloro-5-fluoro-phenylcarbonyl)amino-phenylcarbonyl]-spiro[cyclopentane-1,4′-benzo[b]azepane]]	54 nM	23 nM	3 nM	IC50 [2, 5]: 10 nM
CON=C1CCCC12CCN(C(=O)c1ccc(NC(=O)c3cc(F)ccc3Cl)cc1)c1ccccc1C2 (centres unmarked) [Cpd 2, N-[4-(2-chloro-5-fluoro-phenylcarbonyl)amino-phenylcarbonyl]-2-methoxyimino-spiro[cyclopentane-1,4′-benzo[b]azepane]]		44 nM	7 nM	
CN(C)N=C1CCCC12CCN(C(=O)c1ccc(NC(=O)c3cc(F)ccc3Cl)cc1)c1ccccc1C2 (centres unmarked) [Cpd 3, N-[4-(2-chloro-5-fluoro-phenylcarbonyl)amino-phenylcarbonyl]-2-dimethylaminoimino-spiro[cyclopentane-1,4′-benzo[b]azepane]]	250 nM		9 nM	IC50 [2, 5]: 20 nM; inhibition at 0.2 µM [3]: 48%
O=C(NN=C1CCCC12CCN(C(=O)c1ccc(NC(=O)c3cc(F)ccc3Cl)cc1)c1ccccc1C2)c1cccnc1 (centres unmarked) [Cpd 4, N-[4-(2-chloro-5-fluoro-phenylcarbonyl)amino-phenylcarbonyl]-2-pyridin-3-ylcarbonylaminoimino-spiro[cyclopentane-1,4′-benzo[b]azepane]]	43 nM	62 nM	12 nM	IC50 [2, 5]: 20 nM
Cn1ccnc1C1=CCCC12CCN(C(=O)c1ccc(NC(=O)c3cc(F)ccc3Cl)cc1)c1ccccc1C2 (centres unmarked) [Cpd 5, N-[4-(2-chloro-5-fluoro-phenylcarbonyl)amino-phenylcarbonyl]-2-(1-methyl-1H-imidazol-2-yl)-spiro[cyclopent-2-ene-1,4′-benzo[b]azepane]]	66 nM	84 nM	9 nM	IC50 [2]: 130 nM
COc1cc(C(=O)N2CCC3(CCCC3N)Cc3ccccc32)ccc1NC(=O)c1cc(F)ccc1Cl (centres unmarked) [Cpd 8, 2-amino-N-[3-methoxy-4-(2-chloro-5-fluoro-phenylcarbonyl)amino-phenylcarbonyl]-spiro[cyclopentane-1,4′-benzo[b]azepane]]		83 nM	16 nM	
O=C(Nc1ccc(C(=O)N2CCC3(CCCC3=NO)Cc3ccccc32)cn1)c1cc(F)ccc1Cl (centres unmarked) [Cpd 10, N-[6-(2-chloro-5-fluoro-phenylcarbonyl)amino-pyridin-3-ylcarbonyl]-2-hydroxyimino-spiro[cyclopentane-1,4′-benzo[b]azepane]]		70 nM	60 nM	
COc1cc(C(=O)N2CCC3(CCCC3NS(N)(=O)=O)Cc3ccccc32)ccc1NC(=O)c1cc(F)ccc1Cl (centres unmarked) [Cpd 33, 2-aminosulfonylamino-N-[3-methoxy-4-(2-chloro-5-fluoro-phenylcarbonyl)amino-phenylcarbonyl]-spiro[cyclopentane-1,4′-benzo[b]azepane]]	31 nM			IC50 [2]: 330 nM
COc1cc(C(=O)N2CC[C@@]3(CC[C@H](NS(N)(=O)=O)C3)Cc3ccccc32)ccc1NC(=O)c1cc(F)ccc1Cl [Cpd 34, (1R,3S)-3-aminosulfonylamino-N-[3-methoxy-4-(2-chloro-5-fluoro-phenylcarbonyl)amino-phenylcarbonyl]-spiro[cyclopentane-1,4′-benzo[b]azepane]]	250 nM			IC50 [2, 5]: 250 nM
COc1cc(C(=O)N2CC[C@@]3(CC[C@@H](NS(N)(=O)=O)C3)Cc3ccccc32)ccc1NC(=O)c1cc(F)ccc1Cl [Cpd 35, (1R,3R)-3-aminosulfonylamino-N-[3-methoxy-4-(2-chloro-5-fluoro-phenylcarbonyl)amino-phenylcarbonyl]-spiro[cyclopentane-1,4′-benzo[b]azepane]]	44 nM			IC50 [2, 5]: 78 nM
COc1cc(C(=O)N2CC[C@]3(C=C(C(=O)NS(=O)(=O)N(C)C)CC3)Cc3ccccc32)ccc1NC(=O)c1cc(F)ccc1Cl [Cpd 36, (R)-N-[3-methoxy-4-(2-chloro-5-fluoro-phenylcarbonyl)amino-phenylcarbonyl]-3-[(dimethylaminosulfonyl)aminocarbonyl]-spiro[cyclopent-2-ene-1,4′-benzo[b]azepane]]	170 nM			IC50 [2]: 210 nM
O=C(c1ccc(N2CCCC2)cc1)N1CCC2(CCCC2=NO)Cc2ccccc21 (centres unmarked) [Cpd 46, N-[4-pyrrolidin-1-yl-phenylcarbonyl]-2-hydroxyimino-spiro[cyclopentane-1,4′-benzo[b]azepane]]				inhibition at 0.2 µM [3]: 40%; inhibition at 0.2 µM [4]: 73%
Cc1ccn(-c2ccc(C(=O)N3CCC4(CCCC4=NO)Cc4ccccc43)cc2)n1 (centres unmarked) [Cpd 47, N-[4-(3-methyl-1H-pyrazol-1-yl)-phenylcarbonyl]-2-hydroxyimino-spiro[cyclopentane-1,4′-benzo[b]azepane]]				inhibition at 0.2 µM [3]: 62%; inhibition at 0.2 µM [4]: 86%
Cc1ccc(F)cc1C(=O)Nc1ccc(C(=O)N2CCC3(CCCC3=NO)Cc3ccccc32)cc1 (centres unmarked) [Cpd 48, N-[4-(2-methyl-5-fluoro-phenylcarbonyl)amino-phenylcarbonyl]-2-hydroxyimino-spiro[cyclopentane-1,4′-benzo[b]azepane]]		26 nM	16 nM	
Cc1ccccc1C(=O)Nc1ccc(C(=O)N2CCC3(CCCC3=NO)Cc3ccccc32)cc1 (centres unmarked) [Cpd 49, N-[4-(2-methyl-phenylcarbonyl)amino-phenylcarbonyl]-2-hydroxyimino-spiro[cyclopentane-1,4′-benzo[b]azepane]]		34 nM	12 nM	
COc1cc(C(=O)N2CCC3(CCCC3N)Cc3ccccc32)ccc1NC(=O)c1cccc(F)c1 (centres unmarked) [Cpd 50, 2-amino-N-[3-methoxy-4-(3-fluoro-phenylcarbonyl)amino-phenylcarbonyl]-spiro[cyclopentane-1,4′-benzo[b]azepane]]				inhibition at 0.2 µM [3]: 9%; inhibition at 0.2 µM [4]: 89%
COc1cc(C(=O)N2CCC3(CCCC3=NO)Cc3ccccc32)ccc1NC(=O)c1cccc(F)c1 (centres unmarked) [Cpd 51, N-[3-methoxy-4-(3-fluoro-phenylcarbonyl)amino-phenylcarbonyl]-2-hydroxyimino-spiro[cyclopentane-1,4′-benzo[b]azepane]]		87 nM	16 nM	
NS(=O)(=O)NC(=O)C1=C[C@@]2(CC1)CCN(C(=O)c1ccc(NC(=O)c3cc(F)ccc3Cl)cc1)c1ccccc1C2 [Cpd 52, (R)-3-aminosulfonylaminocarbonyl-N-[4-(2-chloro-5-fluoro-phenylcarbonyl)amino-phenylcarbonyl]-spiro[cyclopent-2-ene-1,4′-benzo[b]azepane]]	35 nM			IC50 [2]: 77 nM

From patent US20080306044A1, “SPIROBENZOAZEPANES AS VASOPRESSIN ANTAGONISTS” (priority 2007, published 2008)
